From publication PMC7413254 (Nature Communications, 2020)

Legend:
non-expressing oocytes = assay type: cell-based, Xenopus laevis; conditions: footnote b: highest intracellular concentration tested was 30 mM (solubility); for Total [3H]CQ transport, trans-stimulation by injected solute / Trans-stimulation data: total [3H]CQ transport: non-expressing oocytes; for Trans-stimulation data: total [3H]CQ transport: normalised to the oocyte type control (control = 100); for Trans-stimulation: total [3H]CQ transport, non-expressing oocytes: mean ± SEM, SEM
Method: Unless specified otherwise, the transport assays were conducted over 1.5 h at 27.5 °C and the reaction buffer was ND96 (96 mM NaCl, 2 mM KCl, 1 mM MgCl2, 1.8 mM CaCl2, 10 mM MES and 10 mM Tris-base) at pH 5.5.
The intracellular concentrations were calculated using previous estimates of the volume of stage V–VI oocytes (~400 nL[60]). […] The oocytes were injected with VF-6 suspended in 25 nL ND96 buffer adjusted to pH 5.0, 5.5, 6.0 or 7.0, which corresponded to the injection of 2.5–250 fmol of H^+. The Na^+-dependence of the trans-stimulatory effect of VF-6 was assessed by injecting the oocytes with VF-6 suspended in ND96 buffer (pH 5.5) or a Na^+-free version of this buffer (the Na^+ was replaced with choline).
At least four independent experiments were performed (on different days and using oocytes from different frogs), and within each experiment measurements were made from ten oocytes per treatment.

PfCRT^3D7 = PfCRT^3D7 (Plasmodium falciparum, UniProt Q8IBZ9); experiment: cell-based; assay type: cell-based; conditions: for Trans-stimulation data: PfCRT-mediated [3H]CQ transport: 2nd of 6 trans-stimulation columns, footnote b: due to solubility the highest intracellular concentration tested was 30 mM, normalised to the oocyte type control = 100; for Total [3H]CQ transport, trans-stimulation by injected solute / Trans-stimulation data: total [3H]CQ transport: PfCRT3D7 oocytes; for Total [3H]CQ transport, trans-stimulation by injected solute / Trans-stimulation data: total [3H]CQ transport / Trans-stimulation: total [3H]CQ transport, PfCRT3D7 oocytes: footnote b: highest intracellular concentration tested was 30 mM (solubility); for Trans-stimulation data: total [3H]CQ transport: normalised to the oocyte type control (control = 100); for Trans-stimulation: total [3H]CQ transport, PfCRT3D7 oocytes: mean ± SEM, SEM
PfCRT^3D7, sequence (Q8IBZ9 59-398): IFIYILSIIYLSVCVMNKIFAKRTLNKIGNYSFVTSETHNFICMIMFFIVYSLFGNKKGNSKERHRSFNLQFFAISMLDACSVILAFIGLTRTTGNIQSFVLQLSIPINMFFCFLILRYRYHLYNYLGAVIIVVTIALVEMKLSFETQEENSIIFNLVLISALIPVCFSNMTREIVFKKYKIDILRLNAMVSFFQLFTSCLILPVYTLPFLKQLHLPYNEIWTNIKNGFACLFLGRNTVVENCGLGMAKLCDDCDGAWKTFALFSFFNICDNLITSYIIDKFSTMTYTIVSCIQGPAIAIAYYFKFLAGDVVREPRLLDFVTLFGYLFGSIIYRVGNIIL
How it was run: (§1)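 Transport measured in Xenopus oocytes expressing the transporters, 1.5 h at 27.5 °C in ND96 pH 5.5 unless noted. For trans-stimulation, VF-6 injected in 25 nL ND96 at pH 5.0–7.0 or Na^+-free (choline) buffer; intracellular levels based on ~400 nL oocyte volume. Ten oocytes per treatment, ≥4 experiments.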

PfCRT^Dd2 = PfCRT^Dd2 (Plasmodium falciparum, UniProt Q9N623, A220S/I356T/K76T/M74I/N326S/N75E/Q271E/R371I); experiment: cell-based; assay type: cell-based; conditions: for Total [3H]CQ transport, trans-stimulation by injected solute / Trans-stimulation data: total [3H]CQ transport: PfCRTDd2 oocytes; for Total [3H]CQ transport, trans-stimulation by injected solute / Trans-stimulation data: total [3H]CQ transport / Trans-stimulation: total [3H]CQ transport, PfCRTDd2 oocytes: footnote b: highest intracellular concentration tested was 30 mM (solubility); for Trans-stimulation data: total [3H]CQ transport: normalised to the oocyte type control (control = 100); for PfCRT-mediated [3H]CQ transport, trans-stimulation by injected solute, PfCRTDd2 / Trans-stimulation data: PfCRT-mediated [3H]CQ transport: footnote b: due to solubility the highest intracellular concentration tested was 30 mM; for PfCRT-mediated [3H]CQ transport, trans-stimulation by injected solute, PfCRTDd2: background subtracted; for Trans-stimulation data: PfCRT-mediated [3H]CQ transport: normalised to the oocyte type control = 100; for Trans-stimulation: total [3H]CQ transport, PfCRTDd2 oocytes: mean ± SEM, SEM
PfCRT^Dd2, sequence (Q9N623 whole entry A220S/I356T/K76T/M74I/N326S/N75E/Q271E/R371I): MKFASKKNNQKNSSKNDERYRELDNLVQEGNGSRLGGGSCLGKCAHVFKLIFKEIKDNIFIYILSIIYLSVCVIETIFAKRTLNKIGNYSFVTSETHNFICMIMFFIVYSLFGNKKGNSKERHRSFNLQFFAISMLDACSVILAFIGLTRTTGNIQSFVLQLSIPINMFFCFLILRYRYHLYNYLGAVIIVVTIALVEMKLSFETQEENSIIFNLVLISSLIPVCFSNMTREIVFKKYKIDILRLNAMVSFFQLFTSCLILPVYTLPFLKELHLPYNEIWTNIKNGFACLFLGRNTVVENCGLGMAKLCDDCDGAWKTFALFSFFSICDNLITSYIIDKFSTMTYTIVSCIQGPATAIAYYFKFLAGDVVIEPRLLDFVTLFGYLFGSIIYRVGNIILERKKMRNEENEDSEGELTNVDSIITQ
How it was run: as §1

PfNT1 = target: T1, PfNT1 (Plasmodium falciparum, UniProt Q8IDM6); experiment: cell-based; assay type: cell-based; conditions: footnote b: highest intracellular concentration tested was 30 mM (solubility); for Total [3H]CQ transport, trans-stimulation by injected solute / Trans-stimulation data: total [3H]CQ transport: PfNT1 oocytes; for Trans-stimulation data: total [3H]CQ transport: normalised to the oocyte type control (control = 100); for Trans-stimulation: total [3H]CQ transport, PfNT1 oocytes: mean ± SEM, SEM
T1 construct: expressed in transfected cells; host or cells: Xenopus laevis oocytes (stage V-VI), cRNA-injected
T1 sequence (Q8IDM6 whole entry): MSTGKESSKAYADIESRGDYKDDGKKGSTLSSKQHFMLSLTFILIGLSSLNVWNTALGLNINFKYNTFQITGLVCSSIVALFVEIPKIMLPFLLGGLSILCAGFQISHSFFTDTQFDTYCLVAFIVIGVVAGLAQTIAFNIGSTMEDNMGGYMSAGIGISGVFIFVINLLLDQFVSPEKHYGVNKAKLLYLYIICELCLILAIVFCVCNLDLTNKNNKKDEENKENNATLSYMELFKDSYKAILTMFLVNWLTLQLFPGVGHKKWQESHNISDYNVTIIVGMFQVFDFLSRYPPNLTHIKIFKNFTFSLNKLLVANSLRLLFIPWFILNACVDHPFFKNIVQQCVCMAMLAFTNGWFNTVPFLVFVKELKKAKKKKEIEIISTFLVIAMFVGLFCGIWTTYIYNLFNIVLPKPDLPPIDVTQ
How it was run: as §1

PfCRT^Ecu1110 = PfCRT^Ecu1110 (Plasmodium falciparum, UniProt Q9N623, A220S/I356L/K76T/N326D); experiment: cell-based; assay type: cell-based; conditions: for Total [3H]CQ transport, trans-stimulation by injected solute / Trans-stimulation data: total [3H]CQ transport: PfCRTEcu1110 oocytes; for Total [3H]CQ transport, trans-stimulation by injected solute / Trans-stimulation data: total [3H]CQ transport / Trans-stimulation: total [3H]CQ transport, PfCRTEcu1110 oocytes: footnote b: highest intracellular concentration tested was 30 mM (solubility); for Trans-stimulation data: total [3H]CQ transport: normalised to the oocyte type control (control = 100); for Trans-stimulation data: PfCRT-mediated [3H]CQ transport: footnote b: due to solubility the highest intracellular concentration tested was 30 mM, normalised to the oocyte type control = 100; for Trans-stimulation: total [3H]CQ transport, PfCRTEcu1110 oocytes: mean ± SEM, SEM
PfCRT^Ecu1110, sequence (Q9N623 whole entry A220S/I356L/K76T/N326D): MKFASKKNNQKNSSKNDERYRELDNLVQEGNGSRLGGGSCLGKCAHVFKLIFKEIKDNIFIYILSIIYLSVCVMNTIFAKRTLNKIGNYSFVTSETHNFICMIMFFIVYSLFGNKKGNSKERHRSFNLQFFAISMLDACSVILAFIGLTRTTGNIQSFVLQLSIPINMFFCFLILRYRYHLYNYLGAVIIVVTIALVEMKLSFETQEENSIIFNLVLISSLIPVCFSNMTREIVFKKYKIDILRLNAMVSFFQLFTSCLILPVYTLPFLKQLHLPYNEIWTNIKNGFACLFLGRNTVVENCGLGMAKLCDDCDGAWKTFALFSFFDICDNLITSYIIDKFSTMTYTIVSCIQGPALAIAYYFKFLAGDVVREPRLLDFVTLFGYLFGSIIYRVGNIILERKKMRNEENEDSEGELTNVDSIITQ
How it was run: as §1

DDEGDDDPVPLPNVNA [DA-16, additional peptide, 16 residues]
Total [3H]CQ transport, trans-stimulation by injected solute (non-expressing oocytes): 2.6 ± 0.08b % of the PfCRTDd2 control | Trans-stimulation data: total [3H]CQ transport (non-expressing oocytes): 98 ± 3.5b | Trans-stimulation data: PfCRT-mediated [3H]CQ transport (PfCRT^3D7): 97 ± 2.2b | Total [3H]CQ transport, trans-stimulation by injected solute (PfCRT^3D7): 3.1 ± 0.02b % of the PfCRTDd2 control | Trans-stimulation data: total [3H]CQ transport (PfCRT^3D7): 100 ± 4.5b | Total [3H]CQ transport, trans-stimulation by injected solute (PfCRT^Dd2): 99 ± 2.7b % of the PfCRTDd2 control | Trans-stimulation data: total [3H]CQ transport (PfCRT^Dd2): 99 ± 2.7b | PfCRT-mediated [3H]CQ transport, trans-stimulation by injected solute, PfCRTDd2 (PfCRT^Dd2): 100 ± 1.9b % of PfCRTDd2 control | Trans-stimulation data: PfCRT-mediated [3H]CQ transport (PfCRT^Dd2): 100 ± 1.9b | Total [3H]CQ transport, trans-stimulation by injected solute (PfNT1): 3.3 ± 0.07b % of the PfCRTDd2 control | Trans-stimulation data: total [3H]CQ transport (PfNT1): 99 ± 2.4b | Total [3H]CQ transport, trans-stimulation by injected solute (PfCRT^Ecu1110): 33 ± 1.8b % of the PfCRTDd2 control | Trans-stimulation data: total [3H]CQ transport (PfCRT^Ecu1110): 99 ± 3.7b | Trans-stimulation data: PfCRT-mediated [3H]CQ transport (PfCRT^Ecu1110): 98 ± 2.9b

FESFGDLSTPDAVMGNPKVK [FK-20, additional peptide, 20 residues]
Total [3H]CQ transport, trans-stimulation by injected solute (non-expressing oocytes): 2.7 ± 0.06b % of the PfCRTDd2 control | Trans-stimulation data: total [3H]CQ transport (non-expressing oocytes): 100 ± 4.8b | Trans-stimulation data: PfCRT-mediated [3H]CQ transport (PfCRT^3D7): 98 ± 1.7b | Total [3H]CQ transport, trans-stimulation by injected solute (PfCRT^3D7): 3.1 ± 0.05b % of the PfCRTDd2 control | Trans-stimulation data: total [3H]CQ transport (PfCRT^3D7): 101 ± 2.7b | Total [3H]CQ transport, trans-stimulation by injected solute (PfCRT^Dd2): 101 ± 4.7b % of the PfCRTDd2 control | Trans-stimulation data: total [3H]CQ transport (PfCRT^Dd2): 101 ± 4.7b | PfCRT-mediated [3H]CQ transport, trans-stimulation by injected solute, PfCRTDd2 (PfCRT^Dd2): 98 ± 4.3b % of PfCRTDd2 control | Trans-stimulation data: PfCRT-mediated [3H]CQ transport (PfCRT^Dd2): 98 ± 4.3b | Total [3H]CQ transport, trans-stimulation by injected solute (PfNT1): 4.2 ± 0.03b % of the PfCRTDd2 control | Trans-stimulation data: total [3H]CQ transport (PfNT1): 100 ± 4.2b | Total [3H]CQ transport, trans-stimulation by injected solute (PfCRT^Ecu1110): 32 ± 1.7b % of the PfCRTDd2 control | Trans-stimulation data: total [3H]CQ transport (PfCRT^Ecu1110): 99 ± 2.9b | Trans-stimulation data: PfCRT-mediated [3H]CQ transport (PfCRT^Ecu1110): 97 ± 2.0b

GTFATLSELHCDK [GK-13]
Trans-stimulation: total [3H]CQ transport, non-expressing oocytes (non-expressing oocytes): 2.6 ± 0.05b % of PfCRTDd2 control | Trans-stimulation data: total [3H]CQ transport (non-expressing oocytes): 100 ± 3.8b | Trans-stimulation data: PfCRT-mediated [3H]CQ transport (PfCRT^3D7): 98 ± 4.1b | Trans-stimulation data: total [3H]CQ transport (PfCRT^3D7): 100 ± 3.6b | Trans-stimulation: total [3H]CQ transport, PfCRT3D7 oocytes (PfCRT^3D7): 3.1 ± 0.04b % of PfCRTDd2 control | Trans-stimulation data: total [3H]CQ transport (PfCRT^Dd2): 97 ± 2.7b | PfCRT-mediated [3H]CQ transport, trans-stimulation by injected solute, PfCRTDd2 (PfCRT^Dd2): 95 ± 1.3b % of PfCRTDd2 control | Trans-stimulation: total [3H]CQ transport, PfCRTDd2 oocytes (PfCRT^Dd2): 97 ± 2.7b % of PfCRTDd2 control | Trans-stimulation data: PfCRT-mediated [3H]CQ transport (PfCRT^Dd2): 95 ± 1.3b | Trans-stimulation data: total [3H]CQ transport (PfNT1): 99 ± 2.7b | Trans-stimulation: total [3H]CQ transport, PfNT1 oocytes (PfNT1): 2.6 ± 0.04b % of PfCRTDd2 control | Trans-stimulation data: total [3H]CQ transport (PfCRT^Ecu1110): 99 ± 2.2b | Trans-stimulation: total [3H]CQ transport, PfCRTEcu1110 oocytes (PfCRT^Ecu1110): 32 ± 1.5b % of PfCRTDd2 control | Trans-stimulation data: PfCRT-mediated [3H]CQ transport (PfCRT^Ecu1110): 97 ± 1.9b

LTPEEKSAVTAL [LL-12]
Trans-stimulation: total [3H]CQ transport, non-expressing oocytes (non-expressing oocytes): 3.2 ± 0.08b % of PfCRTDd2 control | Trans-stimulation data: total [3H]CQ transport (non-expressing oocytes): 99 ± 2.4b | Trans-stimulation data: PfCRT-mediated [3H]CQ transport (PfCRT^3D7): 97 ± 3.4b | Trans-stimulation data: total [3H]CQ transport (PfCRT^3D7): 99 ± 2.7b | Trans-stimulation: total [3H]CQ transport, PfCRT3D7 oocytes (PfCRT^3D7): 3.1 ± 0.05b % of PfCRTDd2 control | Trans-stimulation data: total [3H]CQ transport (PfCRT^Dd2): 100 ± 2.8b | PfCRT-mediated [3H]CQ transport, trans-stimulation by injected solute, PfCRTDd2 (PfCRT^Dd2): 98 ± 1.1b % of PfCRTDd2 control | Trans-stimulation: total [3H]CQ transport, PfCRTDd2 oocytes (PfCRT^Dd2): 100 ± 2.8b % of PfCRTDd2 control | Trans-stimulation data: PfCRT-mediated [3H]CQ transport (PfCRT^Dd2): 98 ± 1.1b | Trans-stimulation data: total [3H]CQ transport (PfNT1): 99 ± 2.5b | Trans-stimulation: total [3H]CQ transport, PfNT1 oocytes (PfNT1): 2.2 ± 0.06b % of PfCRTDd2 control | Trans-stimulation data: total [3H]CQ transport (PfCRT^Ecu1110): 100 ± 2.2b | Trans-stimulation: total [3H]CQ transport, PfCRTEcu1110 oocytes (PfCRT^Ecu1110): 33 ± 1.0b % of PfCRTDd2 control | Trans-stimulation data: PfCRT-mediated [3H]CQ transport (PfCRT^Ecu1110): 98 ± 1.7b
